Tests used:
B. subtilis 168a = experiment: MIC/MBC microbroth dilution (EUCAST); format: cell-based, Bacillus subtilis; details: Bacillus subtilis, 168A; for MIC: read-out: MIC
Description: (§1) Minimum inhibitory concentrations (MIC values) were obtained using the microbroth dilution method as stated in the EUCAST guidelines. Tests were conducted on cation adjusted Mueller–Hinton broth (caMHB) or agar (caMHA). These were prepared and stored following the manufacturer’s guidelines. Biological organisms were prepared via growth on either Luria–Bertani (LB) or cation adjusted Mueller–Hinton agar plates. These were grown for 24 h at 37 °C, except for Micrococcus luteus where MICs took longer to grow and as a consequence were read after 48 h once a clear positive control could be observed. For the MIC experiment, the bacteria were prepared using the McFarland 0.5 standard and diluted 1 in 100 or 1 in 10 in caMHB following EUCAST and CSLI guidelines for the preparation of bacteria. Testing of the compounds using the microbroth dilution method took place in 96-well plates. Serial 2-fold dilutions of compounds in caMHB covering a range from 256 µg/mL to 0.25 µg/mL were prepared. Bacteria preparations (McFarland) were added to the compound dilutions, further halving the compound concentrations. The plate was then incubated for 18 h at 37 °C. Controls for the MIC experiments included a bacterial growth (positive) control of bacteria and caMHB only and a media only (negative) control. After incubation, the plates were read, whereby the positive control of bacteria was visible and the negative control was clear of contamination. The last clear well, where there is no growth of bacteria, was counted as the MIC value. […] The lowest concentration without any bacterial growth was counted as the MBC value. The following pathogens were used: Pseudomonas aeruginosa NCTC 13437, Escherichia coli NCTC 13353, Bacillus subtilis 168a, Serratia marcescens NCTC 9940, Micrococcus luteus ATCC 10240, Staphylococcus aureus JE2 USA 300, Acinetobacter baumannii ATCC 19606, and Klebsiella pneumoniae ATCC 700603. A concentration range of 256 µg/mL to 0.25 µg/mL of a combination of ciprofloxacin and meropenem against E. coli 25922 was used as an antibiotic control to ensure correct dilution and performance of the assay.

[1] = Resazurin-based in vitro cytotoxicity with HepG2 cells; format: cell-based, human; details: HepG2 cells; human hepatocarcinoma cells, 48 h
Description: The HepG2 cells were washed with DPBS (Dulbecco’s PBS without calcium and magnesium, Gibco, Cat #21600-044) and trypsinized with trypsin solution in DPBS. Trypsinization was stopped by adding culture medium, and after being stained with Trypan Blue (SORS Ukraine) cells were counted using a counting chamber (Hausser Scientific, Cat #3500). The cell suspension was placed in a falcon tube containing plating medium DMEM/High glucose with 1% fetal bovine serum, 100 units/mL penicillin, and 100 µg/mL streptomycin. Cells at a density of 250,000 cells/mL were seeded in sterile 384-well plates (Greiner Bio-One, Cat #781091) in a volume of […] and incubated at 37 °C and 5% CO2. Serial dilutions of ten 3-fold dilution steps of test and reference compounds covering a range from 100.0 to 0.005 µM were added to the wells, followed by incubation at 37 °C and 5% CO2 for 48 h. Then, resazurin (50 µM final concentration) was added and plates were incubated for another 3 h. The plates were read with a SpectraMax microplate reader (Molecular Devices Cooperation, Sunnyvale, CA, USA)) using an extinction wavelength of 555 nm and an emission wavelength of 570 nm. IC50 values were calculated using GraphPad Prism 9.0 charting software. Doxorubicin (Sigma Aldrich D1515) was used as control.

[2] = Resazurin-based in vitro cytotoxicity with L-6 cells; format: cell-based, rat; details: rat
Description: Serial drug dilutions of eleven 3-fold dilution steps covering a range from 100 to 0.002 µg/mL were prepared. After 70 h of incubation, the plates were inspected under an inverted microscope to assure growth of the controls and sterile conditions. […] The plates were read with a Spectramax Gemini XS microplate fluorometer (Molecular Devices Cooperation, Sunnyvale, CA, USA) using an excitation wavelength of 536 nm and an emission wavelength of 588 nm. IC50 values were calculated by linear regression from the sigmoidal dose–inhibition curves using SoftmaxPro software Version 8.2.1 (Molecular Devices Cooperation, Sunnyvale, CA, USA). Podophyllotoxin (Sigma P4405) was used as control.

S. aureus JE2 USA 300 = experiment: MIC/MBC microbroth dilution (EUCAST); format: cell-based; details: Staphylococcus aureus, USA300, S. aureus JE2 USA 300
Description: as §1

[3] = test system: K. pneumoniae ATCC 700603; experiment: MIC/MBC microbroth dilution (EUCAST); format: cell-based; details: Klebsiella pneumoniae, ATCC700603
Description: as §1

S. marcescens NCTC 9940 = experiment: MIC/MBC microbroth dilution (EUCAST); format: cell-based; details: Serratia marcescens, NCTC9940
Description: as §1

P. aeruginosa NCTC 13437 = experiment: MIC/MBC microbroth dilution (EUCAST); format: cell-based; details: Pseudomonas aeruginosa, NCTC13437
Description: as §1

[4] = Parallel artificial membrane permeability assay (PAMPA); details: PAMPA, pH 7.4, Pe, PBS pH 7.4, 200 µM, 5 h, room temperature
Description: With the high-throughput PAMPA the newly synthesized compounds were tested for their passive permeability through cell membranes without the influence of efflux pumps or transporter proteins. The assay was performed using a Corning® Gentest^TM Precoated PAMPA Plate System (Corning, Glendale, AZ, USA) with 96-well polystyrene plates. The bottom of the acceptor plate consists of a porous membrane, whereby the pores are lined with a lipid–oil–lipid triple layer. Stock solutions of each test compound at 10 mM were prepared in DMSO or methanol and diluted with phosphate-buffered saline (PBS at a pH of 7.4) to a final concentration of 200 µM. […] The donor plate (bottom plate) was filled with the compound solutions, whereby all compounds were tested in quadruplicates. Each well of the acceptor plate (top plate) was filled with PBS buffer. Donor and acceptor plates were combined and incubated at room temperature for 5 h. After that, the plates were separated and 150 µL of each well of both plates were transferred to 96-well UV plates (Greiner Bio-One). Absorption at different wavelengths covering a range from 200 to 300 nm was measured using a SpectraMax M3 UV plate reader. […] The plates were analyzed at the wavelength where the R2 value of the calibration curve was higher than 0.99 [47].
Recovery of compounds from donor and acceptor wells (mass retention) was calculated as shown in the equation below. Data were only accepted when recovery exceeded 70%. The equation is as follows:(3) R=1−[cDt×VD+cAt×VA]/(c0×VD) where

E. coli NCTC 13353 = experiment: MIC/MBC microbroth dilution (EUCAST); format: cell-based, Escherichia coli; details: Escherichia coli; for MBC: NCTC13353; for MIC: NCTC13353, read-out: MIC
Description: as §1

A. baumannii ATCC 19606 = experiment: MIC/MBC microbroth dilution (EUCAST); format: cell-based, Acinetobacter baumannii; details: Acinetobacter baumannii; for MBC: ATCC19606; for MIC: ATCC19606, read-out: MIC
Description: as §1

P. falciparum NF54 = experiment: In vitro microplate assay against P. falciparum NF54 (3H-hypoxanthine incorporation); format: cell-based, Plasmodium falciparum; details: Plasmodium falciparum, NF54, chloroquine-sensitive strain NF54, erythrocytic stages; read-out: P.f.NF54 IC50
Description: Serial drug dilutions of eleven 3-fold dilution steps covering a range from 100 to 0.002 µg/mL were prepared. […] After 48 h of incubation time, 0.05 mL of ^3H-hypoxanthine (=0.5 µCi) was added to each well of the plate. The plates were incubated for a further 24 h under the same conditions. Plates were then harvested using a BetaplateTM cell harvester (Wallac, Zurich, Switzerland). Red blood cells were transferred onto a glass fiber filter and then washed with distilled aqua demin. The dried filters were inserted into a plastic foil with 10 mL of scintillation fluid and counted in a BetaplateTM liquid scintillation counter (Wallac, Zurich, Switzerland). IC50 values were calculated from sigmoidal inhibition curves by linear regression using Microsoft Excel. […] Louis, MO, USA) was used as control.

| Structure (SMILES) | MBC (B. subtilis 168a) [µg/mL] | MIC (B. subtilis 168a) [µg/mL] | IC50 at 48 h [1] [µM] | IC50 at 70 h [2] [µM] | MBC (S. aureus JE2 USA 300) [µg/mL] | MIC (S. aureus JE2 USA 300) [µg/mL] | MBC [3] [µg/mL] | MIC [3] [µg/mL] | MBC (S. marcescens NCTC 9940) [µg/mL] | MIC (S. marcescens NCTC 9940) [µg/mL] | MBC (P. aeruginosa NCTC 13437) [µg/mL] | MIC (P. aeruginosa NCTC 13437) [µg/mL] | Papp at 5 h, 200 µM [4] [×10⁻⁶ cm/s] | MBC (E. coli NCTC 13353) [µg/mL] | MIC (E. coli NCTC 13353) [µg/mL] | MBC (A. baumannii ATCC 19606) [µg/mL] | MIC (A. baumannii ATCC 19606) [µg/mL] | IC50 (P. falciparum NF54) [µM] |
| --- | --- | --- | --- | --- | --- | --- | --- | --- | --- | --- | --- | --- | --- | --- | --- | --- | --- | --- |
| O=C(Nc1ccc(N2CCNCC2)cc1)c1cccc(C(F)(F)F)c1Oc1ccc(F)cc1 [Compound 57, 2-(4-Fluorophenoxy)-N-[4-(piperazin-1-yl)phenyl]-3-(trifluoromethyl)benzamide] | 256 | 128 | 10.4 | 37.3 | 128 | 128 | 128 | 128 | > 256 | > 256 | > 256 | > 256 | 6.89 | > 256 | > 256 | 256 | 128 | 3.15 |
| O=C(Nc1ccc(N2CCNCC2)cc1)c1ccccc1Oc1ccc(F)cc1 [Compound 59, 2-(4-Fluorophenoxy)-N-[4-(piperazin-1-yl)phenyl]benzamide] | 128 | 128 | 38.9 | 25.4 | 128 | 128 | 128 | 128 | > 256 | > 256 | > 256 | > 256 | 14.2 | > 256 | 256 | 256 | 256 | 2.04 |
| O=C(Nc1ccc(N2CCNCC2)cc1)c1cccc(F)c1Oc1ccc(F)cc1 [Compound 60, 3-Fluoro-2-(4-fluorophenoxy)-N-[4-(piperazin-1-yl)phenyl]benzamide] | 256 | 256 | 26.2 | 40.8 | > 256 | > 256 | > 256 | > 256 | > 256 | > 256 | > 256 | > 256 | 11.7 | > 256 | > 256 | > 256 | > 256 | 4.7 |
